What was measured:
PPARα = molecular target: T1, PPARα (Mus musculus, UniProt P23204); experiment: Partial protease (trypsin) digestion assay, PPARα; assay type: binding; settings: 2, 20 and 100 μM AJA
T1 construct: expressed in transfected cells; host or cells: HEK293 / HEK293T
T1 sequence (P23204 1-468): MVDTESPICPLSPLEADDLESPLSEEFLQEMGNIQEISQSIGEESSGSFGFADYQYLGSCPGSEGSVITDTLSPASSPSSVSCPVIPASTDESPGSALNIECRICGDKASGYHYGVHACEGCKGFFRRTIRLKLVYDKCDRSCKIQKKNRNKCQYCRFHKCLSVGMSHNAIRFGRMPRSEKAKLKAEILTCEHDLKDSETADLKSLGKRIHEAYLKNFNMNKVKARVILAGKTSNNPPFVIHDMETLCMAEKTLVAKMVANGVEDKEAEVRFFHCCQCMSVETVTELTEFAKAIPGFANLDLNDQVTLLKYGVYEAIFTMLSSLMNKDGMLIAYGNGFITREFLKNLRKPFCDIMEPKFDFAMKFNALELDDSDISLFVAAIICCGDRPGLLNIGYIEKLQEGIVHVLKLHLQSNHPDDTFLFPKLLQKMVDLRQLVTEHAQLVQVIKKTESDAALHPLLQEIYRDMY
Description: Partial protease digestion was carried out as described by Leng et. al. (J Steroid Biochem Mol Biol 46:643-61, 1993). PPAR proteins were made by in vitro transcription/translation reactions in reticulocyte lysate according to the manufacture's instructions (Promega). AJA, GW347845, or vehicle alone was incubated with the 35S-labeled PPARs at room temperature for one hour before trypsin digestion. Reactions were stopped by boiling in SDS-containing sample buffer, and lysates were subjected to SDS-PAGE and autoradiography.
The PPAR proteins were synthesized and labeled with ^35S-methionine in reticulocyte lysate and incubated with AJA, GW347845, or vehicle alone at room temperature for one hour before trypsin digestion. The reactions were terminated by boiling in SDS-containing protein sample buffer. The proteolytic patterns of PPAR proteins were then analyzed by SDS-PAGE and autoradiography, and compared with vehicle-treated control samples.
The AJA concentrations required to protect PPARγ from trypsin digestion were further measured.

hRXRα = molecular target: T2, hRXRα (Homo sapiens, UniProt P19793); experiment: DR1-TK-LUC reporter assay, RXRα; assay type: cell-based; settings: saturating concentrations, HEK293 cells
T2 construct: expressed in transfected cells; host or cells: HEK293
T2 sequence (P19793 1-462): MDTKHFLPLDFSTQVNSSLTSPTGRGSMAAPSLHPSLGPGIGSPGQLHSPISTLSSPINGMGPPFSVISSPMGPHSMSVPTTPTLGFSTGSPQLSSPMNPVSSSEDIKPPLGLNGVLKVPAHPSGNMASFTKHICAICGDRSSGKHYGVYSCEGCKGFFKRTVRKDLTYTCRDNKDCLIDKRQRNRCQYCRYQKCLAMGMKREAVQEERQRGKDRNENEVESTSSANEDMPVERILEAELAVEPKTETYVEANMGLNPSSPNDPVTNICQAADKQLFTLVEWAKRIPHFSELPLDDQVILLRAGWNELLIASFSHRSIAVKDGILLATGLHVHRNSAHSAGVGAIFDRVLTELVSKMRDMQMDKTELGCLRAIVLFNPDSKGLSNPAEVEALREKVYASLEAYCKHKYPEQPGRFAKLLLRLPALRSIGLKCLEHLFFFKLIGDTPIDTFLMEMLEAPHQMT

With `CCCCCCC(C)(C)c1cc(O)c2c(c1)OC(C)(C)[C@@H]1CC=C(C(=O)O)C[C@@H]21` [AJA, dimethylheptyl-THC-11-oic acid] the “proteinase sensitivity of PPARα” value (PPARα) was “did not affect the proteinase sensitivity” and the “activation of reporter via RXRα” value (hRXRα) was “failed to activate the reporter”.

From patent publication US20040186166A1, “Cannabinoid analogs as peroxisome proliferator activated nuclear receptor gamma activators” (priority 2002, published 2004)
